# In the NIST ThermoML archive (doi:10.1021/acs.jced.7b01053):
# Values joined by “and” are separate entries in the source; they are usually repeats but may differ in a detail not shown here. Equal entries are not always repeated. ± gives the expanded uncertainty stated by the source.
# Assay: mn = molality of the nth substance listed, in mol/kg
# Conditions: 293 K, 100 kPa, Liquid, Alternating current cell with electrodes
structure (smiles),measurement,setting,value
CC(=O)[O-].[NH3+]CCO [2-hydroxyethylammonium acetate] + O,electrical conductivity,m1 = 0.02015,0.13 ± 0.008 S/m
same,electrical conductivity,m1 = 0.0241,0.138 ± 0.016 S/m
same,electrical conductivity,m1 = 0.03983,0.262 ± 0.02 S/m
same,electrical conductivity,m1 = 0.04796,0.274 ± 0.02 S/m
same,electrical conductivity,m1 = 0.05774,0.359 ± 0.027 S/m
same,electrical conductivity,m1 = 0.07416,0.45 ± 0.034 S/m
same,electrical conductivity,m1 = 0.07452,0.4 ± 0.029 S/m
same,electrical conductivity,m1 = 0.09015,0.539 ± 0.041 S/m
same,electrical conductivity,m1 = 0.09982,0.512 ± 0.038 S/m
same,electrical conductivity,m1 = 0.1057,0.618 ± 0.051 S/m
same,electrical conductivity,m1 = 0.1213,0.702 ± 0.057 S/m
same,electrical conductivity,m1 = 0.1267,0.628 ± 0.051 S/m
same,electrical conductivity,m1 = 0.1356,0.775 ± 0.068 S/m
same,electrical conductivity,m1 = 0.1485,0.835 ± 0.073 S/m
same,electrical conductivity,m1 = 0.1519,0.737 ± 0.063 S/m
same,electrical conductivity,m1 = 0.1621,0.9 ± 0.084 S/m
same,electrical conductivity,m1 = 0.1743,0.958 ± 0.089 S/m
same,electrical conductivity,m1 = 0.1778,0.847 ± 0.076 S/m
same,electrical conductivity,m1 = 0.1867,1.02 ± 0.1 S/m
same,electrical conductivity,m1 = 0.2004,1.08 ± 0.16 S/m
same,electrical conductivity,m1 = 0.2025,0.95 ± 0.15 S/m
same,electrical conductivity,m1 = 0.2157,1.14 ± 0.12 S/m
same,electrical conductivity,m1 = 0.2285,1.06 ± 0.1 S/m
same,electrical conductivity,m1 = 0.2326,1.21 ± 0.15 S/m
same,electrical conductivity,m1 = 0.2502,1.29 ± 0.14 S/m
same,electrical conductivity,m1 = 0.2521,1.16 ± 0.12 S/m
same,electrical conductivity,m1 = 0.2691,1.37 ± 0.15 S/m
same,electrical conductivity,m1 = 0.2755,1.23 ± 0.13 S/m
same,electrical conductivity,m1 = 0.2868,1.44 ± 0.17 S/m
same,electrical conductivity,m1 = 0.2977,1.33 ± 0.15 S/m
same,electrical conductivity,m1 = 0.3032,1.44 ± 0.17 S/m
same,electrical conductivity,m1 = 0.3189,1.48 ± 0.17 S/m
same,electrical conductivity,m1 = 0.3199,1.42 ± 0.16 S/m
same,electrical conductivity,m1 = 0.3337,1.56 ± 0.19 S/m
same,electrical conductivity,m1 = 0.3404,1.49 ± 0.17 S/m
same,electrical conductivity,m1 = 0.3476,1.61 ± 0.2 S/m
same,electrical conductivity,m1 = 0.3609,1.61 ± 0.2 S/m
same,electrical conductivity,m1 = 0.3615,1.57 ± 0.19 S/m
same,electrical conductivity,m1 = 0.3811,1.64 ± 0.21 S/m
same,electrical conductivity,m1 = 0.3855,1.75 ± 0.23 S/m
same,electrical conductivity,m1 = 0.4003,1.72 ± 0.22 S/m
same,electrical conductivity,m1 = 0.4075,1.86 ± 0.25 S/m
same,electrical conductivity,m1 = 0.4184,1.77 ± 0.23 S/m
same,electrical conductivity,m1 = 0.4279,1.93 ± 0.26 S/m
same,electrical conductivity,m1 = 0.4359,1.83 ± 0.24 S/m
same,electrical conductivity,m1 = 0.4463,1.98 ± 0.28 S/m
same,electrical conductivity,m1 = 0.4526,1.87 ± 0.25 S/m
same,electrical conductivity,m1 = 0.4627,2.03 ± 0.29 S/m
same,electrical conductivity,m1 = 0.4642,1.9 ± 0.26 S/m
same,electrical conductivity,m1 = 0.4774,2.08 ± 0.32 S/m
same,electrical conductivity,m1 = 0.4797,1.94 ± 0.29 S/m
same,electrical conductivity,m1 = 0.4943,1.99 ± 0.28 S/m
same,electrical conductivity,m1 = 0.5085,2.04 ± 0.29 S/m
same,electrical conductivity,m1 = 0.5221,2.09 ± 0.3 S/m
same,electrical conductivity,m1 = 0.5351,2.13 ± 0.31 S/m
same,electrical conductivity,m1 = 0.5473,2.17 ± 0.32 S/m
same,electrical conductivity,m1 = 0.5594,2.23 ± 0.34 S/m
same,electrical conductivity,m1 = 0.5705,2.27 ± 0.34 S/m
CC(=O)[O-].C[NH2+]CCO [N-methyl-2-hydroxyethylammonium acetate] + O,electrical conductivity,m1 = 0.01579,0.077 ± 0.013 S/m
same,electrical conductivity,m1 = 0.01797,0.09 ± 0.013 S/m
same,electrical conductivity,m1 = 0.03269,0.14 ± 0.018 S/m
same,electrical conductivity,m1 = 0.03539,0.162 ± 0.019 S/m
same,electrical conductivity,m1 = 0.05165,0.21 ± 0.028 S/m
same,electrical conductivity,m1 = 0.05369,0.236 ± 0.029 S/m
same,electrical conductivity,m1 = 0.06943,0.29 ± 0.02 S/m
same,electrical conductivity,m1 = 0.07132,0.318 ± 0.022 S/m
same,electrical conductivity,m1 = 0.08822,0.356 ± 0.037 S/m
same,electrical conductivity,m1 = 0.09023,0.385 ± 0.039 S/m
same,electrical conductivity,m1 = 0.1063,0.507 ± 0.063 S/m
same,electrical conductivity,m1 = 0.1084,0.453 ± 0.061 S/m
same,electrical conductivity,m1 = 0.1255,0.561 ± 0.043 S/m
same,electrical conductivity,m1 = 0.1264,0.551 ± 0.042 S/m
same,electrical conductivity,m1 = 0.1433,0.607 ± 0.047 S/m
same,electrical conductivity,m1 = 0.1458,0.612 ± 0.048 S/m
same,electrical conductivity,m1 = 0.162,0.66 ± 0.053 S/m
same,electrical conductivity,m1 = 0.1641,0.665 ± 0.053 S/m
same,electrical conductivity,m1 = 0.1793,0.705 ± 0.058 S/m
same,electrical conductivity,m1 = 0.1809,0.713 ± 0.059 S/m
same,electrical conductivity,m1 = 0.1972,0.75 ± 0.063 S/m
same,electrical conductivity,m1 = 0.1983,0.762 ± 0.064 S/m
same,electrical conductivity,m1 = 0.2133,0.804 ± 0.069 S/m
same,electrical conductivity,m1 = 0.2134,0.787 ± 0.067 S/m
same,electrical conductivity,m1 = 0.2303,0.833 ± 0.073 S/m
same,electrical conductivity,m1 = 0.2308,0.838 ± 0.074 S/m
same,electrical conductivity,m1 = 0.2458,0.87 ± 0.078 S/m
same,electrical conductivity,m1 = 0.246,0.877 ± 0.079 S/m
same,electrical conductivity,m1 = 0.2615,0.899 ± 0.081 S/m
same,electrical conductivity,m1 = 0.2616,0.861 ± 0.076 S/m
same,electrical conductivity,m1 = 0.276,0.893 ± 0.081 S/m
same,electrical conductivity,m1 = 0.2762,0.942 ± 0.087 S/m
same,electrical conductivity,m1 = 0.2904,0.926 ± 0.085 S/m
same,electrical conductivity,m1 = 0.2909,0.968 ± 0.091 S/m
same,electrical conductivity,m1 = 0.3042,0.957 ± 0.089 S/m
same,electrical conductivity,m1 = 0.3044,0.998 ± 0.095 S/m
same,electrical conductivity,m1 = 0.3175,1.01 ± 0.097 S/m
same,electrical conductivity,m1 = 0.3178,1.03 ± 0.099 S/m
same,electrical conductivity,m1 = 0.3298,1.04 ± 0.1 S/m
same,electrical conductivity,m1 = 0.3302,1.04 ± 0.1 S/m
same,electrical conductivity,m1 = 0.3422,1.07 ± 0.1 S/m
same,electrical conductivity,m1 = 0.3425,1.08 ± 0.11 S/m
same,electrical conductivity,m1 = 0.354,1.11 ± 0.11 S/m
same,electrical conductivity,m1 = 0.3542,1.1 ± 0.11 S/m
same,electrical conductivity,m1 = 0.3654,1.13 S/m and 1.12 S/m
same,electrical conductivity,m1 = 0.376,1.16 ± 0.12 S/m
same,electrical conductivity,m1 = 0.3765,1.15 ± 0.12 S/m
same,electrical conductivity,m1 = 0.3868,1.17 ± 0.12 S/m
same,electrical conductivity,m1 = 0.3967,1.19 ± 0.12 S/m
same,electrical conductivity,m1 = 0.4065,1.21 ± 0.13 S/m
same,electrical conductivity,m1 = 0.4155,1.24 ± 0.13 S/m
same,electrical conductivity,m1 = 0.4245,1.27 ± 0.14 S/m
CCCC(=O)[O-].C[NH2+]CCO [N-methyl-2-hydroxyethylammonium butanoate] + O,electrical conductivity,m1 = 0.01443,0.041 ± 0.005 S/m
same,electrical conductivity,m1 = 0.01609,0.047 ± 0.005 S/m
same,electrical conductivity,m1 = 0.03059,0.077 ± 0.006 S/m
same,electrical conductivity,m1 = 0.03161,0.084 ± 0.006 S/m
same,electrical conductivity,m1 = 0.04718,0.115 ± 0.008 S/m
same,electrical conductivity,m1 = 0.04851,0.122 ± 0.008 S/m
same,electrical conductivity,m1 = 0.06311,0.149 ± 0.009 S/m
same,electrical conductivity,m1 = 0.06401,0.155 ± 0.01 S/m
same,electrical conductivity,m1 = 0.08077,0.185 ± 0.012 S/m
same,electrical conductivity,m1 = 0.08176,0.189 ± 0.012 S/m
same,electrical conductivity,m1 = 0.09698,0.232 ± 0.015 S/m
same,electrical conductivity,m1 = 0.09705,0.235 ± 0.015 S/m
same,electrical conductivity,m1 = 0.1139,0.268 ± 0.017 S/m
same,electrical conductivity,m1 = 0.1146,0.267 ± 0.017 S/m
same,electrical conductivity,m1 = 0.1298,0.298 ± 0.019 S/m
same,electrical conductivity,m1 = 0.1307,0.297 ± 0.019 S/m
same,electrical conductivity,m1 = 0.1464,0.324 ± 0.021 S/m
same,electrical conductivity,m1 = 0.1479,0.328 ± 0.022 S/m
same,electrical conductivity,m1 = 0.1614,0.35 ± 0.023 S/m
same,electrical conductivity,m1 = 0.1638,0.355 ± 0.024 S/m
same,electrical conductivity,m1 = 0.1771,0.372 ± 0.026 S/m
same,electrical conductivity,m1 = 0.1802,0.383 ± 0.026 S/m
same,electrical conductivity,m1 = 0.1918,0.395 ± 0.027 S/m
same,electrical conductivity,m1 = 0.1952,0.408 ± 0.028 S/m
same,electrical conductivity,m1 = 0.2064,0.42 ± 0.029 S/m
same,electrical conductivity,m1 = 0.2106,0.434 ± 0.03 S/m
same,electrical conductivity,m1 = 0.2201,0.44 ± 0.031 S/m
same,electrical conductivity,m1 = 0.2246,0.456 ± 0.032 S/m
same,electrical conductivity,m1 = 0.2336,0.46 ± 0.033 S/m
same,electrical conductivity,m1 = 0.2384,0.478 ± 0.034 S/m
same,electrical conductivity,m1 = 0.2466,0.48 ± 0.034 S/m
same,electrical conductivity,m1 = 0.2514,0.496 ± 0.036 S/m
same,electrical conductivity,m1 = 0.2596,0.498 ± 0.036 S/m
same,electrical conductivity,m1 = 0.2644,0.516 ± 0.038 S/m
same,electrical conductivity,m1 = 0.2712,0.513 ± 0.038 S/m
same,electrical conductivity,m1 = 0.2766,0.528 ± 0.039 S/m
same,electrical conductivity,m1 = 0.283,0.525 ± 0.039 S/m
same,electrical conductivity,m1 = 0.2887,0.542 ± 0.04 S/m
same,electrical conductivity,m1 = 0.294,0.54 ± 0.04 S/m
same,electrical conductivity,m1 = 0.2998,0.558 ± 0.042 S/m
same,electrical conductivity,m1 = 0.3048,0.556 ± 0.042 S/m
same,electrical conductivity,m1 = 0.311,0.572 ± 0.043 S/m
same,electrical conductivity,m1 = 0.3148,0.571 ± 0.043 S/m
same,electrical conductivity,m1 = 0.3214,0.586 ± 0.045 S/m
same,electrical conductivity,m1 = 0.3247,0.583 ± 0.045 S/m
same,electrical conductivity,m1 = 0.3317,0.6 ± 0.046 S/m
same,electrical conductivity,m1 = 0.334,0.596 ± 0.046 S/m
same,electrical conductivity,m1 = 0.3412,0.611 ± 0.047 S/m
same,electrical conductivity,m1 = 0.343,0.607 ± 0.047 S/m
same,electrical conductivity,m1 = 0.3505,0.624 ± 0.049 S/m
same,electrical conductivity,m1 = 0.3515,0.619 ± 0.048 S/m
same,electrical conductivity,m1 = 0.3593,0.634 ± 0.05 S/m
same,electrical conductivity,m1 = 0.3599,0.629 ± 0.049 S/m
same,electrical conductivity,m1 = 0.3677,0.639 ± 0.05 S/m
same,electrical conductivity,m1 = 0.3679,0.646 ± 0.051 S/m
same,electrical conductivity,m1 = 0.3758,0.656 ± 0.052 S/m
